The subject of this assay is MV-4-11 cells. Description: Gene expression microarray analysis (Affymetrix PrimeView) and GSEA. It counts as cell-based, human. Also on record: RFU PODN (11730768_x_at) / Fold change /veh PODN (11730768_x_at) / RFU LINC00158 (11744669_a_at) / Fold change /veh LINC00158 (11744669_a_at) / RFU DUSP10 (11751237_a_at) / Fold change /veh DUSP10 (11751237_a_at) / RFU ID3 (11757404_x_at) / Fold change /veh ID3 (11757404_x_at) / RFU PLEKHG5 (11737974_s_at) / Fold change /veh PLEKHG5 (11737974_s_at) / RFU LRRC4B (11730491_at) / Fold change /veh LRRC4B (11730491_at) / RFU GIMAP4 (11747438_a_at) / Fold change /veh GIMAP4 (11747438_a_at) / RFU KRT8 (11758183_x_at) / Fold change /veh KRT8 (11758183_x_at) / RFU CNN1 (11734310_a_at) / Fold change /veh CNN1 (11734310_a_at) / RFU VPS37D (11726825_at) / Fold change /veh VPS37D (11726825_at) / RFU C10orf10 (11716522_x_at) / Fold change /veh C10orf10 (11716522_x_at) / RFU KIR2DL2 /// KIR2DL4 /// KIR2DL5A /// KIR2DL5B /// KIR2DS1 /// KIR2DS2 /// KIR2DS3 /// KIR2DS4 /// KIR3DL3 /// KIR3DL3 /// KIR3DS1 (11738374_at) / Fold change /veh KIR2DL2 /// KIR2DL4 /// KIR2DL5A /// KIR2DL5B /// KIR2DS1 /// KIR2DS2 /// KIR2DS3 /// KIR2DS4 /// KIR3DL3 /// KIR3DL3 /// KIR3DS1 (11738374_at) / RFU C1QL1 (11718748_at) / Fold change /veh C1QL1 (11718748_at) / RFU TMPRSS4 (11747572_a_at) / Fold change /veh TMPRSS4 (11747572_a_at) / RFU HAMP (11756126_x_at) / Fold change /veh HAMP (11756126_x_at) / RFU RNFT2 (11725882_a_at) / Fold change /veh RNFT2 (11725882_a_at) / RFU NR4A2 (11747474_a_at) / Fold change /veh NR4A2 (11747474_a_at) / RFU ABCC12 (11746883_a_at) / Fold change /veh ABCC12 (11746883_a_at) / RFU TMEM136 (11760407_x_at) / Fold change /veh TMEM136 (11760407_x_at) / RFU CLDN22 /// WWC2 (11732394_at) / Fold change /veh CLDN22 /// WWC2 (11732394_at) / RFU HLA-DPB1 (11760878_x_at) / Fold change /veh HLA-DPB1 (11760878_x_at) / RFU SPINT1 (11716480_a_at) / Fold change /veh SPINT1 (11716480_a_at) / RFU GAP43 (11754022_s_at) / Fold change /veh GAP43 (11754022_s_at) / RFU A4GNT (11735810_at) / Fold change /veh A4GNT (11735810_at) / RFU PRB3 (11715151_x_at) / Fold change /veh PRB3 (11715151_x_at) / RFU TUBB4B (11761932_at) / Fold change /veh TUBB4B (11761932_at) / RFU CAPN14 (11732068_a_at) / Fold change /veh CAPN14 (11732068_a_at) / RFU TMCC2 (11721928_a_at) / Fold change /veh TMCC2 (11721928_a_at) / RFU IRGQ (11745062_a_at) / Fold change /veh IRGQ (11745062_a_at) / RFU FAM174B (11720279_a_at) / Fold change /veh FAM174B (11720279_a_at) / RFU TMPRSS4 (11748680_a_at) / Fold change /veh TMPRSS4 (11748680_a_at) / RFU FAM212B (11763350_a_at) / Fold change /veh FAM212B (11763350_a_at) / RFU PLEKHG5 (11743358_a_at) / Fold change /veh PLEKHG5 (11743358_a_at) / RFU ZSCAN30 (11745921_a_at) / Fold change /veh ZSCAN30 (11745921_a_at) / RFU CMKLR1 (11741424_a_at) / Fold change /veh CMKLR1 (11741424_a_at) / RFU LOC101060620 /// MAPK8IP1 (11723275_at) / Fold change /veh LOC101060620 /// MAPK8IP1 (11723275_at) / RFU SPTSSB (11747773_x_at) / Fold change /veh SPTSSB (11747773_x_at) / RFU PRSS12 (11739890_at) / Fold change /veh PRSS12 (11739890_at) / RFU BIN1 (11741810_x_at) / Fold change /veh BIN1 (11741810_x_at) / RFU WNT11 (11732464_a_at) / Fold change /veh WNT11 (11732464_a_at) / RFU C10orf10 (11716521_a_at) / Fold change /veh C10orf10 (11716521_a_at) / RFU C5orf56 (11738089_at) / Fold change /veh C5orf56 (11738089_at) / RFU CYB561 (11721691_x_at) / Fold change /veh CYB561 (11721691_x_at) / RFU ANKRD19P (11752326_a_at) / Fold change /veh ANKRD19P (11752326_a_at) / RFU OR2T12 /// OR2T33 /// OR2T8 (11738714_s_at) / Fold change /veh OR2T12 /// OR2T33 /// OR2T8 (11738714_s_at) / RFU VCAN (11748164_a_at) / Fold change /veh VCAN (11748164_a_at) / RFU JSRP1 (11732532_at) / Fold change /veh JSRP1 (11732532_at) / RFU KRTAP10-11 (11738290_x_at) / Fold change /veh KRTAP10-11 (11738290_x_at) / RFU MYO3A (11730013_a_at) / Fold change /veh MYO3A (11730013_a_at) / RFU EBF3 (11725865_a_at) / Fold change /veh EBF3 (11725865_a_at) / RFU CAMK2N1 (11719241_x_at) / Fold change /veh CAMK2N1 (11719241_x_at) / RFU C5orf56 (11738088_a_at) / Fold change /veh C5orf56 (11738088_a_at) / RFU OLFML3 (11715873_a_at) / Fold change /veh OLFML3 (11715873_a_at) / RFU LOC100653217 /// NTM (11731650_a_at) / Fold change /veh LOC100653217 /// NTM (11731650_a_at) / RFU MAPK11 (11762145_a_at) / Fold change /veh MAPK11 (11762145_a_at) / RFU FIZ1 (11724087_x_at) / Fold change /veh FIZ1 (11724087_x_at) / RFU OASL (11726364_x_at) / Fold change /veh OASL (11726364_x_at) / RFU SOX15 (11748057_x_at) / Fold change /veh SOX15 (11748057_x_at) / RFU CD79A (11719716_a_at) / Fold change /veh CD79A (11719716_a_at) / RFU HIST1H1D (11736915_at) / Fold change /veh HIST1H1D (11736915_at) / RFU CASKIN2 (11723855_a_at) / Fold change /veh CASKIN2 (11723855_a_at) / RFU LOC730098 (11760151_x_at) / Fold change /veh LOC730098 (11760151_x_at) / RFU OR4N2 (11742367_at) / Fold change /veh OR4N2 (11742367_at) / RFU PRRT2 (11749266_a_at) / Fold change /veh PRRT2 (11749266_a_at) / RFU SNX32 (11753110_a_at) / Fold change /veh SNX32 (11753110_a_at) / RFU CDHR5 (11726645_a_at) / Fold change /veh CDHR5 (11726645_a_at) / RFU RCAN1 (11760418_a_at) / Fold change /veh RCAN1 (11760418_a_at) / RFU FAM167A (11723789_a_at) / Fold change /veh FAM167A (11723789_a_at) / RFU FAM26E (11764081_at) / Fold change /veh FAM26E (11764081_at) / RFU ISYNA1 (11749810_s_at) / Fold change /veh ISYNA1 (11749810_s_at) / RFU ACY1 (11761880_at) / Fold change /veh ACY1 (11761880_at) / RFU 11764098_at / Fold change /veh 11764098_at / RFU SAMD14 (11745864_x_at) / Fold change /veh SAMD14 (11745864_x_at) / RFU NPB (11741838_a_at) / Fold change /veh NPB (11741838_a_at) / RFU TMPRSS6 (11731388_a_at) / Fold change /veh TMPRSS6 (11731388_a_at) / RFU KRTAP10-2 (11738614_at) / Fold change /veh KRTAP10-2 (11738614_at) / RFU ARHGAP8 /// PRR5-ARHGAP8 (11727945_x_at) / Fold change /veh ARHGAP8 /// PRR5-ARHGAP8 (11727945_x_at) / RFU KRTAP5-7 /// NADSYN1 (11734609_at) / Fold change /veh KRTAP5-7 /// NADSYN1 (11734609_at) / RFU RASL12 (11751679_a_at) / Fold change /veh RASL12 (11751679_a_at) / RFU CDKN2B (11736163_a_at) / Fold change /veh CDKN2B (11736163_a_at) / RFU PRF1 (11729649_at) / Fold change /veh PRF1 (11729649_at) / RFU, ZNF638 /// ZNF638-IT1 / Fold change vs veh, ZNF638 /// ZNF638-IT1 / RFU, PANK3 / Fold change vs veh, PANK3 / RFU, SH3YL1 / Fold change vs veh, SH3YL1 / RFU, ZEB2 / Fold change vs veh, ZEB2 / RFU, NRIP1 / Fold change vs veh, NRIP1 / RFU, PTTG1IP / Fold change vs veh, PTTG1IP / RFU, CAPN2 / Fold change vs veh, CAPN2 / RFU, MED14 / Fold change vs veh, MED14 / RFU, SNORA58 / Fold change vs veh, SNORA58 / RFU, C1orf63 / Fold change vs veh, C1orf63 / RFU, LRRFIP1 / Fold change vs veh, LRRFIP1 / RFU, NDUFAF7 / Fold change vs veh, NDUFAF7 / RFU, SLC12A2 / Fold change vs veh, SLC12A2 / RFU, IBTK / Fold change vs veh, IBTK / RFU, ESF1 / Fold change vs veh, ESF1 / Fold change vs veh, TMEM50B / RFU, TAOK1 / Fold change vs veh, TAOK1 / RFU, ACBD3 / Fold change vs veh, ACBD3 / RFU, TMA16 / Fold change vs veh, TMA16 / RFU, RWDD3 / Fold change vs veh, RWDD3 / RFU, BCAT1 / Fold change vs veh, BCAT1 / RFU, EDEM3 / Fold change vs veh, EDEM3 / RFU, TMEM33 / Fold change vs veh, TMEM33 / RFU, WDR75 / Fold change vs veh, WDR75 / RFU, AHCTF1 / Fold change vs veh, AHCTF1 / RFU, TFRC / Fold change vs veh, TFRC / RFU, ZDHHC17 / Fold change vs veh, ZDHHC17 / RFU, NOM1 / Fold change vs veh, NOM1 / RFU, ARL8B / Fold change vs veh, ARL8B / RFU, ZBTB11 / Fold change vs veh, ZBTB11 / RFU, TAMM41 / Fold change vs veh, TAMM41 / RFU, KIAA1704 /// LOC100996395 / Fold change vs veh, KIAA1704 /// LOC100996395 / RFU, ING1 / Fold change vs veh, ING1 / RFU, TRMT61B / Fold change vs veh, TRMT61B / RFU, FUBP3 / Fold change vs veh, FUBP3 / RFU, TP53 / Fold change vs veh, TP53 / RFU, TNKS2 / Fold change vs veh, TNKS2 / RFU, ZFP14 / Fold change vs veh, ZFP14 / RFU, ACTR2 / Fold change vs veh, ACTR2 / RFU, PPP3R1 / Fold change vs veh, PPP3R1 / RFU, PIK3R1 / Fold change vs veh, PIK3R1 / RFU, HNRNPA1 / Fold change vs veh, HNRNPA1 / RFU, RNF170 / Fold change vs veh, RNF170 / RFU, ZNF28 / Fold change vs veh, ZNF28 / RFU, RNGTT / Fold change vs veh, RNGTT / RFU, OGT / Fold change vs veh, OGT / RFU, BRD1 / Fold change vs veh, BRD1 / RFU, MARS / Fold change vs veh, MARS / RFU, ZNF655 / Fold change vs veh, ZNF655 / RFU, FAHD1 / Fold change vs veh, FAHD1 / RFU, BDP1 / Fold change vs veh, BDP1 / RFU, LRRCC1 / Fold change vs veh, LRRCC1 / RFU, ARID1A / Fold change vs veh, ARID1A / RFU, ZNF146 / Fold change vs veh, ZNF146 / RFU, ZNF330 / Fold change vs veh, ZNF330 / RFU, GPN3 / Fold change vs veh, GPN3 / RFU, C9orf123 / Fold change vs veh, C9orf123 / RFU, N4BP2L2 / Fold change vs veh, N4BP2L2 / RFU, ARFIP1 / Fold change vs veh, ARFIP1 / RFU, FAM179B / Fold change vs veh, FAM179B / RFU, BCL10 / Fold change vs veh, BCL10 / RFU, UHRF1BP1L / Fold change vs veh, UHRF1BP1L / RFU, BET1 / Fold change vs veh, BET1 / RFU, CNOT2 / Fold change vs veh, CNOT2 / RFU, ZNF268 / Fold change vs veh, ZNF268 / Fold change vs veh, ZNF507 / RFU, DGCR2 / Fold change vs veh, DGCR2 / RFU, WDSUB1 / Fold change vs veh, WDSUB1 / Fold change vs veh, HSP90B1 /// MIR3652 / RFU, ADSS / Fold change vs veh, ADSS / RFU, GK / Fold change vs veh, GK / RFU, ZNF148 / Fold change vs veh, ZNF148 / RFU, TAF9 / Fold change vs veh, TAF9 / RFU, SLC1A5 / Fold change vs veh, SLC1A5 / RFU, SLMO2 / Fold change vs veh, SLMO2 / RFU, ABCC4 / Fold change vs veh, ABCC4 / RFU, LOC101060439 /// RAP1B / Fold change vs veh, LOC101060439 /// RAP1B / RFU, RFX7 / Fold change vs veh, RFX7 / RFU, GTPBP10 / Fold change vs veh, GTPBP10 / RFU, CNEP1R1 / Fold change vs veh, CNEP1R1 / RFU, BIVM-ERCC5 /// ERCC5 / Fold change vs veh, BIVM-ERCC5 /// ERCC5 / RFU, ILF3 / Fold change vs veh, ILF3 / RFU 11762660_at / Fold change /veh 11762660_at / RFU VCAN (11757783_s_at) / Fold change /veh VCAN (11757783_s_at) / RFU DDX43 (11728927_at) / Fold change /veh DDX43 (11728927_at) / RFU KRT8 (11758188_x_at) / Fold change /veh KRT8 (11758188_x_at) / RFU NKD1 (11759106_at) / Fold change /veh NKD1 (11759106_at) / RFU SRD5A1 (11742802_a_at) / Fold change /veh SRD5A1 (11742802_a_at) / RFU TPSAB1 /// TPSB2 (11721975_s_at) / Fold change /veh TPSAB1 /// TPSB2 (11721975_s_at) / RFU GSTM3 (11746129_a_at) / Fold change /veh GSTM3 (11746129_a_at) / RFU IL23R (11737362_x_at) / Fold change /veh IL23R (11737362_x_at) / RFU TMEM51 (11727254_a_at) / Fold change /veh TMEM51 (11727254_a_at) / RFU PIWIL2 (11732686_x_at) / Fold change /veh PIWIL2 (11732686_x_at) / RFU ORM1 (11744905_x_at) / Fold change /veh ORM1 (11744905_x_at) / RFU CCDC152 (11743942_at) / Fold change /veh CCDC152 (11743942_at) / RFU ECM1 (11717891_a_at) / Fold change /veh ECM1 (11717891_a_at) / RFU IL23R (11748794_a_at) / Fold change /veh IL23R (11748794_a_at) / RFU TNFAIP8L3 (11732012_x_at) / Fold change /veh TNFAIP8L3 (11732012_x_at) / RFU MBOAT4 (11741988_at) / Fold change /veh MBOAT4 (11741988_at) / RFU 11764193_at / Fold change /veh 11764193_at / RFU TMEM53 (11763286_at) / Fold change /veh TMEM53 (11763286_at) / RFU MAGEB2 (11727129_at) / Fold change /veh MAGEB2 (11727129_at) / RFU TMEM200A (11744735_a_at) / Fold change /veh TMEM200A (11744735_a_at) / RFU CCDC152 (11751479_a_at) / Fold change /veh CCDC152 (11751479_a_at) / RFU FAM211A (11726209_a_at) / Fold change /veh FAM211A (11726209_a_at) / RFU RGS16 (11746705_a_at) / Fold change /veh RGS16 (11746705_a_at) / RFU VCAN (11755009_s_at) / Fold change /veh VCAN (11755009_s_at) / RFU RHOB (11743442_s_at) / Fold change /veh RHOB (11743442_s_at) / RFU RGS16 (11720943_a_at) / Fold change /veh RGS16 (11720943_a_at) / RFU RGS16 (11720944_at) / Fold change /veh RGS16 (11720944_at) / RFU, VPS4B / Fold change vs veh, VPS4B / RFU, CREB1 / Fold change vs veh, CREB1 / RFU, DNAJC13 / Fold change vs veh, DNAJC13 / RFU, GNAQ / Fold change vs veh, GNAQ / RFU, CDK5R1 / Fold change vs veh, CDK5R1 / RFU, ZRANB3 / Fold change vs veh, ZRANB3 / RFU, CUL4A / Fold change vs veh, CUL4A / RFU, CCNY / Fold change vs veh, CCNY / RFU, UFL1 / Fold change vs veh, UFL1 / RFU, COG3 / Fold change vs veh, COG3 / RFU, DIAPH2 / Fold change vs veh, DIAPH2 / RFU, SKA2 / Fold change vs veh, SKA2 / RFU, AFF3 / Fold change vs veh, AFF3 / RFU, LMF1 / Fold change vs veh, LMF1 / RFU, IPO11 / Fold change vs veh, IPO11 / RFU, DFFB / Fold change vs veh, DFFB / RFU, FOXP1 / Fold change vs veh, FOXP1 / RFU, CARD8 / Fold change vs veh, CARD8 / RFU, STRN3 / Fold change vs veh, STRN3 / RFU, ADK / Fold change vs veh, ADK / RFU, RASSF2 / Fold change vs veh, RASSF2 / RFU, WIPF1 / Fold change vs veh, WIPF1 / RFU, LARP1B / Fold change vs veh, LARP1B / RFU, RASA1 / Fold change vs veh, RASA1 / RFU, RB1 / Fold change vs veh, RB1 / RFU, PPFIA1 / Fold change vs veh, PPFIA1 / RFU, MAT2A / Fold change vs veh, MAT2A / RFU, CCT5 / Fold change vs veh, CCT5 / RFU, WDR92 / Fold change vs veh, WDR92 / RFU, CUX1 / Fold change vs veh, CUX1 / RFU, TTC7A / Fold change vs veh, TTC7A / RFU, TMEM135 / Fold change vs veh, TMEM135 / RFU, DEPTOR / Fold change vs veh, DEPTOR / RFU, CPM / Fold change vs veh, CPM / RFU, DNAJB6 / Fold change vs veh, DNAJB6 / RFU, CACNA2D3 / Fold change vs veh, CACNA2D3 / RFU, DTX4 / Fold change vs veh, DTX4 / RFU, TFCP2 / Fold change vs veh, TFCP2 / RFU, GMCL1 /// GMCL1P1 / Fold change vs veh, GMCL1 /// GMCL1P1 / RFU, AEBP2 / Fold change vs veh, AEBP2 / RFU, SNHG1 /// SNORD22 /// SNORD25 /// SNORD26 /// SNORD27 /// SNORD28 /// SNORD29 /// SNORD31 / Fold change vs veh, SNHG1 /// SNORD22 /// SNORD25 /// SNORD26 /// SNORD27 /// SNORD28 /// SNORD29 /// SNORD31 / Fold change (Aza/veh), C12orf56 (ProbeSet 11735607_a_at) / Fold change (ACY-1035/veh), C12orf56 (ProbeSet 11735607_a_at) / Fold change (Aza/veh), FGFR1OP (ProbeSet 11751329_s_at) / Fold change (ACY-1035/veh), FGFR1OP (ProbeSet 11751329_s_at) / Fold change (Aza/veh), VPS36 (ProbeSet 11739960_a_at) / Fold change (ACY-1035/veh), VPS36 (ProbeSet 11739960_a_at) / RFU SYPL1 (11715823_x_at) / Fold change /veh SYPL1 (11715823_x_at) / RFU IGFBP7 (11715501_s_at) / Fold change /veh IGFBP7 (11715501_s_at) / RFU REEP3 (11722064_at) / Fold change /veh REEP3 (11722064_at) / RFU IGLL1 (11728026_x_at) / Fold change /veh IGLL1 (11728026_x_at): dose or concentration left out as unconfirmed. To be noted: MV-4-11 cells, 48 hours.

These results are taken from publication PMC5218480 (PLoS ONE, 2017).

As to `Nc1ccc(-c2cccs2)cc1NC(=O)c1ccc2c(c1)cc(C1CC1)n2CCN1CCOCC1` [ACY-1035], the “RFU VCAN (11748164_a_at)” value came to 5.33 RFU.
